Measurements as given in patent US8637679B2, “Process for the isolation of organic compounds useful for the treatment of cancer” (Council of Scientific and Industrial Research, priority 2011, dated 2014).
Read-outs that look alike come from different tables or passages of the source.

Tests used:
Molt-3 = assay: MTT cell viability assay, Molt-3; assay type: cell-based, human; details: Homo sapiens; Molt-3, 48 hrs
Method: (§1) Human cervical cancer cell lines (HeLa, ME-180 and SiHa), brain tumor cell lines (U87MG, U373MG, U87MG EGFRvIII, T98G, A172 and LN229), lymphoid leukemia (MOLT-3, MOLT-4, REH and CEMC-7), myloid leukemia (K562), pancreatic cancer (MIAPaCa-2, AsPC-1, Panc-1 and Panc 10.05), lung cancer (A549) and colon cancer (HCT116 and SW480) cell lines from American Type Culture Collection, Manassas, Va., USA were grown in IMDM or RPMI (cell specific) Medium supplemented with 10% fetal bovine serum and 1% antibiotic-antimycotic. Cells were cultured in 37° C. in an atmosphere of 5% CO2.
(§2) Viability of cancer cell lines after treatment as at the indicated times was determined by MTT assay. Briefly, 10,000 cells were plated in triplicate in 96 well plates and incubated for 24 and 48 hours in complete media in presence of varying dose of mahanine (0-50 μM). 100 ug MTT was added in each well. Incubate the plate for 1-4 hours at 37° C. and humidified 5% CO2 atmosphere. Absorbance was recorded at 550 nm with 96 well plate readers.

K562 = assay: MTT cell viability assay, K562; assay type: cell-based, human; details: Homo sapiens; K562, 48 hrs
Method: as §1, §2

A172 = assay: MTT cell viability assay, A172; assay type: cell-based, human; details: Homo sapiens, A 172; A172, 48 hrs
Method: as §1, §2

Panc1 = assay: MTT cell viability assay, Panc1; assay type: cell-based, human; details: Homo sapiens, PANC-1; Panc1, 48 hrs
Method: as §1, §2

Panc10.05 = assay: MTT cell viability assay, Panc10.05; assay type: cell-based, human; details: Homo sapiens, Panc1005; Panc10.05, 48 hrs
Method: as §1, §2

SW480 = assay: MTT cell viability assay, SW480; assay type: cell-based, human; details: Homo sapiens; SW480, 48 hrs
Method: as §1, §2

ME180 = assay: MTT cell viability assay, ME180; assay type: cell-based; details: Homo sapiens, ME-180, ME180, 48 hr
Method: as §1, §2

[1] = test system: glioma (T98G) and cervical (HeLa) cancer cells; assay: Comparative cytotoxicity of mahanine and analogs by MTT; assay type: cell-based, human
Method: as §1, §2

cancer cell lines = assay: MTT assay, pooled cancer cell lines of several cancer types; assay type: cell-based, human
Method: as §1, §2

HeLa = assay: 7-AAD flow cytometric apoptosis, HeLa; assay type: cell-based, human; details: 25 μM mahanine
Method: (§3) U87MG, LN229, HeLa, SiHa and ME180 (1×10^6 cells) cells were cultured in 6-well plates in presence or absence of Mahanine (25 μM) for 24 hrs. Cells were washed in PBS, incubated with 7-Aminoactinomycin D (7-AAD) at 4° C. for 20 min and processed. Data acquisition was done on a FACSCalibur flow cytometer (BD) at excitation wavelength at 488 nm and emission wavelength at 647 nm and analyzed with CellQuestPro software.

SiHa = assay: 7-AAD flow cytometric apoptosis, SiHa; assay type: cell-based, human; details: 25 μM mahanine
Method: as §3

[2] = test system: intracellular Ca2+ in MIAPaCa-2; assay: Intracellular Ca2+ measurement (Fluo-3/AM); assay type: cell-based, human; details: MIAPaCa-2, with and without extra-cellular Ca2+
Method: MIAPaCa-2 cells (3×10^6), treated with mahanine, were washed in 1× Hanks Balanced Salt Solution (HBSS) [Gibco, Invitrogen Corporation, USA] and then loaded with Fluo-3/AM (2 μM, Calbiochem, Germany) in HBSS containing 1.26 mM CaCl2. The cells were incubated at 37° C. for 30 min in dark with gentle agitation. All extracellular Fluo-3/AM was removed by two-three times washing in aforesaid buffer. The level of cytoplasmic Ca^2+ within Fluo-3/AM loaded MIAPaCa-2 was determined in time dependent manner in the absence and presence of CaCl2 (1.26 mM CaCl2).

[3] = test system: endoplasmic reticulum (ER) stress in MIAPaCa-2 cells; assay: ER-Tracker Blue-White DPX confocal microscopy; assay type: cell-based, human; details: MIAPaCa-2, 18 hrs, 10 μM and 20 μM mahanine
Method: MIAPaCa-2 cells were seeded in 8 chambered polystyrene culture slide [BD Falcon, USA] at […] cells per well in RPMI-1640 medium supplemented with 10% FBS. After 24 hrs of seeding, cells were exposed to different concentration of mahanine along with vehicle control. Cells were washed with 1× Hanks Balanced Salt Solution (HBSS) after 18 hrs of incubation and processed for ER staining. Pre-warmed ER-Tracker Blue White DPX (Molecular Probes) was added to the cells at 500 nM working concentration and incubated for 30 mins at 37° C. at 5% CO2 incubator. The loading solution was removed and cells were then washed again in HBSS and samples were analyzed using confocal laser scanning microscope (NICON A1-R, NICON, Japan). Images were recorded using 60×/1.40 oil plan Apo-N objectives at calibrated magnification.

MIAPaCa-2 = assay: Scratch-wound haptotaxis assay, MIAPaCa-2; assay type: cell-based, human; details: MIAPaCa-2, highest treated cells, 6 hrs
Method: Highly and moderately invasive pancreatic cancer cell lines, MIAPaCa-2 and BxPC3 (1×10^6/ml/well) were cultured to >90% confluence in 6 well plate. Consequently, cell were rinsed with PBS and starved in low serum media (2 ml containing 0.5%-0.1% serum in RPMI-1640 for MIAPaCa-2 and BxPC-3) for overnight. On the following day, three separate scratch-wounds were made through the confluent cells. Scratched plate was rinsed with PBS and replaced with serum starved media containing successive doses of mahanine or EtOH for 6 hrs. Picture was taken by using phase contrast at 10× accordingly.

In vivo toxicity in mice = assay: In vivo toxicity in mice
Method: Animals were examined for 1 month after the administration of acute toxic dose (150 mg/kg/day); there was no change in behavior, feeding habit, total body mass and in number of biochemical and haematological parameters.

[4] = In vivo bioavailability after oral feeding; set-up: species or system Balb/c mice; details: after oral administration
Method: EtOAc extract of Murraya koenigii was orally feeded to normal healthy Balb/c (100 mg/kg body weight) and blood was collected from retro orbital plexus after 30 min interval by glass capillary. Control blood was collected from the mice before the […] of extract. The Institutional Animal Ethical Committee had approved the study. Blood serum was isolated and the serum protein was separated by centrifugation in ice-cold acetone. Supernatant was evaporated to dryness and residual part was dissolved in minimum volume of MeOH and injected into the HPLC column.

Storage stability = assay type: physicochemical

CC(C)=CCCC1(C)C=Cc2c(c(C)cc3c2[nH]c2cc(O)ccc23)O1 (centres unmarked) [Mahanine, mahanine]
IC50 (Molt-3): 10.6 ± 0.3 µM | IC50 (K562): 13 ± 1.1 µM | IC50 (A172): 11.6 ± 1 µM | IC50 (Panc1): 16.5 ± 0.2 µM | IC50 (Panc10.05): 18.5 ± 1.6 µM | IC50 (SW480): 16 ± 0.3 µM | IC50 (ME180): 14.6 µM | fold less IC50 of mahanine compared to mahanimbine [1]: 2-2.5 fold | IC50 (cancer cell lines; Homo sapiens, Pancreatic cancer cell, 48 h, range, 48 hr treatment, read-out: IC50, glioma, cervical and pancreatic cancer cell lines): 11 to 14 µM | inhibition at 20 µM (cancer cell lines; Homo sapiens, mahanine at 20 μM, read-out: inhibition of cancer cells): 75 to 85% | IC50 (cancer cell lines; range over glioma and cervical cancer cell lines, 48 hr, listed as 1b, read-out: IC50, glioma and cervical cancer cells): 30 to 50 µM | IC50 (cancer cell lines; range over glioma and cervical cancer cell lines, 48 hr, read-out: IC50, glioma and cervical cancer cells): 12 to 17 µM | apoptosis (7-AAD+ve cells) (HeLa): 92.28% | apoptosis (7-AAD+ve cells) (SiHa): 97.13% | time to maximum enhancement of intracellular Ca2+ pool [2]: ≤ 15 min | ER-Tracker staining (ER stress) [3]: significantly increased blue staining | wound closure / migratory cells (MIAPaCa-2): < 5% | Creatinine (In vivo toxicity in mice; mouse, in vivo): 3.72 mg/dL | Hb (In vivo toxicity in mice; mouse, in vivo): 13.64 gm/dl | SGOT (In vivo toxicity in mice; mouse, in vivo): 174.0 Unit/ml | SGPT (In vivo toxicity in mice; mouse, in vivo): 34.7 Unit/ml | Urea (In vivo toxicity in mice; mouse, in vivo): 48.6 mg/dL | tolerated dose (In vivo toxicity in mice; normal Balb/c mice, consecutive 20 days): 150 mg/kg/day | secondary metabolites in blood (mass spectroscopy) [4]: no production of secondary metabolites | stable storage time (Storage stability; dissolved in ethanol, −20° C.): > 6 months | stability at room temperature (Storage stability; purified compound): stable in room temperature
